Source: ChEMBL document CHEMBL5653631, “A Potent and Selective ULK1 Inhibitor Suppresses Autophagy and Sensitizes Cancer Cells to Nutrient Stress” (iScience, 2018)

Columns and labels:
[1] = biological target: T1, Protein kinase C epsilon type (Homo sapiens) (UniProt Q02156); assay: Inhibition of human recombinant PKCe at 40 nM related to control ULK1
T1 sequence (whole entry): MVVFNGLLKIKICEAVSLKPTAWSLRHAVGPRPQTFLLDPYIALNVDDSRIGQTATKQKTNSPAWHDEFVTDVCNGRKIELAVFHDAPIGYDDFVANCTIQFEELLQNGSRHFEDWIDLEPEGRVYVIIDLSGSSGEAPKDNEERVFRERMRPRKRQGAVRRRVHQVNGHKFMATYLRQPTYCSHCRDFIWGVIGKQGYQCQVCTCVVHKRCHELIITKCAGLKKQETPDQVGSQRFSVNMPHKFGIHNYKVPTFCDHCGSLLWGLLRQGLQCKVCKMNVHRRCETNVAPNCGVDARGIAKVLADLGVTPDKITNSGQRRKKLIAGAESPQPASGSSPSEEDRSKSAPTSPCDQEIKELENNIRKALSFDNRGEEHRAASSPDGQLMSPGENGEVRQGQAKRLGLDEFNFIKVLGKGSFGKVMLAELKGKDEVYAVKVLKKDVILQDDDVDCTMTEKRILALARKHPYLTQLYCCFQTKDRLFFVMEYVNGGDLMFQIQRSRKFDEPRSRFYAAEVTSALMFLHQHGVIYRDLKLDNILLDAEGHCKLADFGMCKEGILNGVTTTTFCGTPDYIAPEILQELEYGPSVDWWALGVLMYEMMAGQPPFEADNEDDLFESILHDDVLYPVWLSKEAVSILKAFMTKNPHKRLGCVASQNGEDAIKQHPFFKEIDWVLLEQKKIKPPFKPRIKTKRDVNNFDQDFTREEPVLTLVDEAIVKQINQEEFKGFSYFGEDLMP

[2] = biological target: Dual specificity tyrosine-phosphorylation-regulated kinase 1A (Homo sapiens) (UniProt Q13627); assay: Inhibition of human recombinant DYRK1A at 15 nM related to control ULK1
[3] = biological target: T2, Mitogen-activated protein kinase kinase kinase 3 (Homo sapiens) (UniProt Q99759); assay: Inhibition of human recombinant MAP3K3 at 15 nM related to control ULK1
T2 sequence (whole entry): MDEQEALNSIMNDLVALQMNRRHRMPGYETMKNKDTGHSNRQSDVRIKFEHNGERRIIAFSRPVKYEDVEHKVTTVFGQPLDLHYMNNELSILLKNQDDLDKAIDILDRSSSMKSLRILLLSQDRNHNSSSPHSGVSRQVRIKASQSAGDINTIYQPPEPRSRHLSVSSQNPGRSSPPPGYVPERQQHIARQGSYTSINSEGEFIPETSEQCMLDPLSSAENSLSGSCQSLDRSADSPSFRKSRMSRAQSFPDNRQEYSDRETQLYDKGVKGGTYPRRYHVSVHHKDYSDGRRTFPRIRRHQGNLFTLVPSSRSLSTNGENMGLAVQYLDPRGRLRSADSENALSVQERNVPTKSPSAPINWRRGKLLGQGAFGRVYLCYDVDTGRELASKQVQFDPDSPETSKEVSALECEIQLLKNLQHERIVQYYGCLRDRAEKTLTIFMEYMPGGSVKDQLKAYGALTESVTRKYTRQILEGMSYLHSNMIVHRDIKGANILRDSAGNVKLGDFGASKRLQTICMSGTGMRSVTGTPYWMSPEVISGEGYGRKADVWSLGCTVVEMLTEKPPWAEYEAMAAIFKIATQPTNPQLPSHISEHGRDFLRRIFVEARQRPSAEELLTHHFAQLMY

[4] = biological target: MAP/microtubule affinity-regulating kinase 3 (Homo sapiens) (UniProt P27448); assay: Inhibition of human recombinant MARK3 at 500 nM related to control ULK1
[5] = biological target: T3, Serine/threonine-protein kinase Nek11 (Homo sapiens) (UniProt Q8NG66); assay: Inhibition of human recombinant NEK11 at 500 nM related to control ULK1
T3 sequence (whole entry): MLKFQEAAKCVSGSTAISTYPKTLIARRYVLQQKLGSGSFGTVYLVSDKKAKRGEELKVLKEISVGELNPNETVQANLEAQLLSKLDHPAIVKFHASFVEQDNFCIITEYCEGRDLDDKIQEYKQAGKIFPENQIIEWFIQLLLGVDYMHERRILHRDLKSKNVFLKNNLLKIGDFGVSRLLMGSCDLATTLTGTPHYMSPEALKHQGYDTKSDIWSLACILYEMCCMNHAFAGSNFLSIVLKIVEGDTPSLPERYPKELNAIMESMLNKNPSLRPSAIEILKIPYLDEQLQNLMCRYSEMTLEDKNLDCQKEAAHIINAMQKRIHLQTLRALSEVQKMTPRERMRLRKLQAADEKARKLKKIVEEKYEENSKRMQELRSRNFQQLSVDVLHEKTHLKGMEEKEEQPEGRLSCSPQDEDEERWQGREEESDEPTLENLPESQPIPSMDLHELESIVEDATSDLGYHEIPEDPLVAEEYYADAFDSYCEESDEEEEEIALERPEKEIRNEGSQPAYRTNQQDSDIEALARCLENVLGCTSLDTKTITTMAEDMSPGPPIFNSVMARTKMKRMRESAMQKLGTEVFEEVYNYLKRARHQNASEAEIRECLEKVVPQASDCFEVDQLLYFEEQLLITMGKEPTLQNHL

[6] = biological target: Glycogen synthase kinase-3 alpha (Homo sapiens) (UniProt P49840); assay: Inhibition of human recombinant GSK3A at 500 nM related to control ULK1
Glycogen synthase kinase-3 alpha (Homo sapiens), sequence (P49840 2-483 limits assumed): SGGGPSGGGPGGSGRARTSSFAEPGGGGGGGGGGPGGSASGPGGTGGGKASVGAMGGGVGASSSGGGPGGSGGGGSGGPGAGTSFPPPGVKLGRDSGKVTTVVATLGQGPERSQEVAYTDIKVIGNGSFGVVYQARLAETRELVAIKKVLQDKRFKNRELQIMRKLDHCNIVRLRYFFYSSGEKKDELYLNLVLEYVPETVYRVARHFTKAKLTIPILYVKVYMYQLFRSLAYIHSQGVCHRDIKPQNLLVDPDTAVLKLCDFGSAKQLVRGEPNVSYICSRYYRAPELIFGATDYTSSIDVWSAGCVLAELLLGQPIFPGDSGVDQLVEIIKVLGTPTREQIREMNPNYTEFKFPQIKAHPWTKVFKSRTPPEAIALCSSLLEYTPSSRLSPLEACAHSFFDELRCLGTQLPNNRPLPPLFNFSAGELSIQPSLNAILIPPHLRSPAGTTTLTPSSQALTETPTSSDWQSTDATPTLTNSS

MAP/microtubule affinity-regulating kinase 3 (Homo sapiens), sequence (P27448 whole entry, looked up): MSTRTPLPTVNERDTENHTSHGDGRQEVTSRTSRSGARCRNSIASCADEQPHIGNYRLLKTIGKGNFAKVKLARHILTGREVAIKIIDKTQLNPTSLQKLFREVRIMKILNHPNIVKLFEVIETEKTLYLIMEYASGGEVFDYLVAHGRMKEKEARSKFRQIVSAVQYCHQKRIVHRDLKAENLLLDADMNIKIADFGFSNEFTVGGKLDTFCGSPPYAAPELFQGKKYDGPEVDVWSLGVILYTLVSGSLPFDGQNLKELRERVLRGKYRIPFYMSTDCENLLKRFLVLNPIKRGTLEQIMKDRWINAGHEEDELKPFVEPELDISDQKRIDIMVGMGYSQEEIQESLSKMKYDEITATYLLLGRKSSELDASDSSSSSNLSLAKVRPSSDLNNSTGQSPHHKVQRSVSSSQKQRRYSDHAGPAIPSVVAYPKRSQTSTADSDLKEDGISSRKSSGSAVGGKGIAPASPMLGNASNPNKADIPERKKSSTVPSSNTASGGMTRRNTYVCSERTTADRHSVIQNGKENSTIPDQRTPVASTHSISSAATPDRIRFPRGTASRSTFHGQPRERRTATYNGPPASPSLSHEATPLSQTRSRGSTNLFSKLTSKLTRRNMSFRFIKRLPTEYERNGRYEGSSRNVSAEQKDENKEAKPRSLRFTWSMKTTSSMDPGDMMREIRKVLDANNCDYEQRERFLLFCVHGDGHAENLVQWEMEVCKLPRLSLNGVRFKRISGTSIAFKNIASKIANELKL

O=C(N[C@@H](C1CC1)C(F)(F)F)c1cc(-c2cnn3cc(-c4ccc(F)cc4)cnc23)cs1 was tested, and the fold change (FC) [1] was 0.

Work on CC(C)[C@H](NC(=O)c1cc(-c2cnn3cc(-c4ccc(OCCN5CCCCC5)cc4)cnc23)cs1)C(F)(F)F yielded a fold change (FC) [2] of 0.83 and a fold change (FC) [3] of 0.03.

In the case of CNC(=O)c1ccccc1Oc1nc(Nc2cc(OC)c(OC)c(OC)c2)ncc1Br, the fold change (FC) [4] was 0.61, the fold change (FC) [5] was 0.11 and the fold change (FC) [6] was 0.
